In patent US8604190B2, “Hetero isonipecotic modulators of vanilloid VR1 receptor” (Janssen Pharmaceutica NV, priority 2004, dated 2013):

The compounds below were run against T1, human VR1 (Homo sapiens, UniProt Q8NER1) (assay: Human VR1 functional assay (FLIPR, intracellular Ca++)). Conditions: A431 cells expressing human VR1, Ca++-sensitive dye, dose-response.
T1 construct: expressed in transfected cells; host or cells: A431 cells
Assay type: cell-based
Protocol: The compounds of the invention were tested using a high throughput VR-1 FLIPR assay.
Human VR1 Functional Assay
The functional activity of the test compounds was determined by measuring changes in intracellular calcium concentration using a Ca^++-sensitive fluorescent dye and FLIPR™ technology. Increases in Ca^++ concentration were readily detected upon challenge with resiniferatoxin (RTX). A431 cells expressing human VR1 were seeded on polystyrene 384-well back walled clear bottom assay plates coated with collagen and incubated for 3-4 hours at 37° C. with 5% CO2 in DMEM. Plates were loaded with […] of 2× Dye Solution, incubated for 1-1.5 hours and subsequently tested for agonist-induced increases in intracellular Ca^2+ levels using FLIPR™ technology. Cells were challenged with test compounds (at varying concentrations) and intracellular Ca^++ was measured prior to the addition of resiniferatoxin to all wells to elicit ˜80% maximal response. EC50 or IC50 values were determined from dose-response studies.

T1 sequence (Q8NER1 whole entry): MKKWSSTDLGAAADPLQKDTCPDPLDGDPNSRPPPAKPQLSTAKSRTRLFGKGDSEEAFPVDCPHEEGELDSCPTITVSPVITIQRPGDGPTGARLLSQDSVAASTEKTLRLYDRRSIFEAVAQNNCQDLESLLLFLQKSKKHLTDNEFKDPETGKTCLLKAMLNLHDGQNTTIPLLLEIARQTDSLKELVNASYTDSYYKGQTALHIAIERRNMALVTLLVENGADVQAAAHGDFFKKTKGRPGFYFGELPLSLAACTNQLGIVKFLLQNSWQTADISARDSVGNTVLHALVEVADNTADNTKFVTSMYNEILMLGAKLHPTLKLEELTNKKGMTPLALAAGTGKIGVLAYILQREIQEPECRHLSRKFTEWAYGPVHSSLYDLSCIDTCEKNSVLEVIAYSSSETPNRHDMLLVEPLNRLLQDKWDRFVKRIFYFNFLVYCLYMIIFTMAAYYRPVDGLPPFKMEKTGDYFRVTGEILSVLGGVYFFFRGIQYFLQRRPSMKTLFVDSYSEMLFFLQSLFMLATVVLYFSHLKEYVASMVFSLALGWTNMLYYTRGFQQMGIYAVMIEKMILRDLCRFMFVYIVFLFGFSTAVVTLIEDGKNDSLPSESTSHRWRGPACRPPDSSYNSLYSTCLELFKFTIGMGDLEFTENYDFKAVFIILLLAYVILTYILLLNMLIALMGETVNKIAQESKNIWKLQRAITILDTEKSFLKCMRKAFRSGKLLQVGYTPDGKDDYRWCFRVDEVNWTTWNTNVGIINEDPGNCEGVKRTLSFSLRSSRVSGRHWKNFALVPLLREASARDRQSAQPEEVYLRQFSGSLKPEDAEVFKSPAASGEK

Compound	EC50
Cc1ccccc1N1CCC(C(=O)N2CCOCC2)CC1 [Compound 13]	1590 nM
Cc1cccc(N2CCC(C(=O)N3CCCCC3)CC2)c1C [Compound 14]	1640 nM
Cc1ccccc1N1CCC(C(=O)N2CCC(O)CC2)CC1 [Compound 11]	1420 nM
CC(=O)N1CCN(C(=O)C2CCN(c3cccc(C)c3C)CC2)CC1 [Compound 31]	4000 nM
Cc1ccccc1N1CCC(C(=O)N2CCCC2)CC1 [Compound 38]	7840 nM
Cc1cccc(N2CCC(C(=O)N3CCC(O)CC3)CC2)c1C [Compound 2, [1-(2,3-Dimethyl-phenyl)-piperidin-4-yl]-(4-hydroxy-piperidin-1-yl)-methanone]	240 nM
Cc1cccc(N2CCC(C(=O)N3CCC(O)C3)CC2)c1C (centres unmarked) [Compound 36]	5200 nM
Cc1ccccc1N1CCC(C(=O)N2CCCCC2)CC1 [Compound 26]	3260 nM
COc1cccc(N2CCC(C(=O)N3CCOCC3)CC2)c1 [Compound 27]	3530 nM
O=C(C1CCN(c2cccc(-c3ccccc3)c2)CC1)N1CCOCC1 [Compound 3, (1-Biphenyl-3-yl-piperidin-4-yl)-morpholin-4-yl-methanone]	270 nM
O=C(C1CCN(c2cccc(-c3ccccc3)c2)CC1)N1CCCCC1 [Compound 33]	4100 nM
CC(=O)N1CCN(C(=O)C2CCN(c3cccc(-c4ccccc4)c3)CC2)CC1 [Compound 30]	3800 nM
O=C(C1CCN(c2cccc3ccccc23)CC1)N1CCSC1 [Compound 24]	3100 nM
Cc1ccccc1N1CCC(C(=O)N2CCCCCC2)CC1 [Compound 25]	3200 nM
Cc1cccc(N2CCC(C(=O)N3C(C)CCCC3C)CC2)c1C (centres unmarked) [Compound 35]	4600 nM
Cc1ccc(N2CCC(C(=O)N3CCC(O)CC3)CC2)cc1C [Compound 8]	910 nM
O=C(C1CCN(c2cccc3ccccc23)CC1)N1CCCCC1 [Compound 17]	1910 nM

Next, values leading:

EC50	Compound
1500 nM	Cc1ccc(N2CCC(C(=O)N3CCOCC3)CC2)cc1C [Compound 12]
270 nM	Cc1ccc(N2CCC(C(=O)N3CCSCC3)CC2)cc1F [Compound 4, [1-(3-Fluoro-4-methyl-phenyl)-piperidin-4-yl]-thiomorpholin-4-yl-methanone]
2050 nM	O=C(C1CCN(c2cc(F)cc(F)c2)CC1)N1CCCCC1 [Compound 20]
1970 nM	O=C(C1CCN(c2cc(F)cc(F)c2)CC1)N1CCSCC1 [Compound 18]
1040 nM	Cc1ccc(N2CCC(C(=O)N3CCCCC3)CC2)cc1C [Compound 9]
3700 nM	O=C(C1CCN(c2cccc(C(F)(F)F)c2)CC1)N1CCCCC1 [Compound 28]
3800 nM	Cc1cccc(N2CCC(C(=O)N3CCCCC3)CC2)c1 [Compound 29]
4100 nM	Cc1cccc(N2CCC(C(=O)N3CCOCC3)CC2)c1 [Compound 32]
2200 nM	O=C(C1CCN(c2cccc(-c3ccccc3)c2)CC1)N1CCSCC1 [Compound 21]
5400 nM	Cc1ccccc1N1CCC(C(=O)N2CCSC2)CC1 [Compound 37]
1300 nM	Cc1ccc(N2CCC(C(=O)N3CCCCC3)CC2)cc1F [Compound 10]
2000 nM	Cc1ccc(N2CCC(C(=O)N3CCOCC3)CC2)cc1F [Compound 19]
2300 nM	Cc1ccc(N2CCC(C(=O)N3CCC(O)CC3)CC2)cc1F [Compound 22]
230 nM	Cc1ccccc1N1CCC(C(=O)N2CCSCC2)CC1 [Compound 1, (1-o-Tolyl-piperidin-4-yl)-thiomorpholin-4-yl-methanone]
340 nM	Cc1ccc(N2CCC(C(=O)N3CCSCC3)CC2)cc1C [Compound 6, [1-(3,4-Dimethyl-phenyl)-piperidin-4-yl]-thiomorpholin-4-yl-methanone]
2800 nM	O=C(C1CCN(c2cc(F)cc(F)c2)CC1)N1CCC(O)CC1 [Compound 23]
760 nM	Cc1cccc(N2CCC(C(=O)N3CCSCC3)CC2)c1C [Compound 7]
4370 nM	COc1cccc(N2CCC(C(=O)N3CCSCC3)CC2)c1 [Compound 34]
1890 nM	Cc1cccc(N2CCC(C(=O)N3CCSC3)CC2)c1C [Compound 16]
1850 nM	O=C(C1CCN(c2cc(F)cc(F)c2)CC1)N1CCOCC1 [Compound 15]
330 nM	O=C(C1CCN(c2cccc(C(F)(F)F)c2)CC1)N1CCOCC1 [Compound 5, [1-(3-Trifluoromethyl-phenyl)-piperidin-4-yl]-morpholin-4-yl-methanone]
